Assay results published in patent US10988478B1, “Pyrazolo[1,5a]pyrimidine derivatives as IRAK4 modulators” (Genentech, Inc., priority 2015, dated 2021).

target: human IRAK4 (Homo sapiens (Human), UniProt Q9NWZ3); assay: IRAK4 kinase inhibition, Transcreener fluorescence polarization ADP assay; type: biochemical; conditions: recombinant full-length His6-IRAK4; 125 uM ATP; 90 min; Ki computed using ATP Km 642 uM
Method: Compounds were assayed for inhibition of human IRAK4 and IRAK1 catalytic activity using recombinant enzyme produced from insect cells. Full-length IRAK4 protein, carrying an N-terminal His6-Tag, was obtained from Life Technologies (Carlsbad, Calif., USA). The IRAK1 construct was produced internally and was comprised of IRAK1 residues Arg194 to Ser712, preceded by an NH2-terminal His6 tag and the coding sequence for glutathione-S-transferase.

Sequence of human IRAK4 (Q9NWZ3 whole entry, the tested form may be a part): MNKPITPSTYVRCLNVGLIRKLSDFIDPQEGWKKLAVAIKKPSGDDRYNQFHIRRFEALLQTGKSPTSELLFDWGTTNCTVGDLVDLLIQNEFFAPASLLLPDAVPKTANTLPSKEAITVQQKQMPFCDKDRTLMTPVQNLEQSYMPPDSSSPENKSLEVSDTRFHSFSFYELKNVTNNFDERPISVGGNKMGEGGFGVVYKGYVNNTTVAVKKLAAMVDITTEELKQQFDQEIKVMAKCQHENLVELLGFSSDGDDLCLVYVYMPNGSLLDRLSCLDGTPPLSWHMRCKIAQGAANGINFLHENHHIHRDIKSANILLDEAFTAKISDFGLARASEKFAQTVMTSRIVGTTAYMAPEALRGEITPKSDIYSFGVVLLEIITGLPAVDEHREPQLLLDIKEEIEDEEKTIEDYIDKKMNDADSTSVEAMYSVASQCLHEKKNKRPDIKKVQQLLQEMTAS

Compared with `CC(C)(O)[C@@]1(C)Cc2cc(NC(=O)c3cnn4cccnc34)c(N3CCC(CO)CC3)cc2O1` [Example 355, (R)—N-(6-(4-(Hydroxymethyl)piperidin-1-yl)-2-(2-hydroxypropan-2-yl)-2-methyl-2,3-dihydrobenzofuran-5-yl)pyrazolo[1,5-a]pyrimidine-3-carboxamide], `O=C(Nc1cc2c(cc1N1CCOCC1)C(=O)N(CC(F)(F)F)C2)c1cnn2cccnc12` [Example 173, N-[6-Morpholino-1-oxo-2-(2,2,2-trifluoroethyl)isoindolin-5-yl]pyrazolo[1,5-a]pyrimidine-3-carboxamide] is 4.8-fold higher in Ki: 6 nM for the first, 29 nM for the second.

First: CC1(C)Cc2cc(NC(=O)c3cnn4cccnc34)c(N3CCN(CC#N)CC3)cc2O1 [Example 456, N-(6-(4-(cyanomethyl)piperazin-1-yl)-2,2-dimethyl-2,3-dihydrobenzofuran-5-yl)pyrazolo[1,5-a]pyrimidine-3-carboxamide]
Second: N-(2,2-dimethyl-6-(4-(2-oxo-2-(thiazol-2-ylamino)ethyl)piperazin-1-yl)-2,3-dihydrobenzofuran-5-yl)pyrazolo[1,5-a]pyridine-3-carboxamide [Example 441]
The Ki of the first is 2.3-fold lower: 2.6 nM for the first, 6 nM for the second. The first binds more tightly here.

First: CC1(C)Cc2cc(NC(=O)c3cnn4cccnc34)c(N3CCC(C(N)=O)CC3)cc2O1 [Example 531, N-[6-(4-carbamoyl-1-piperidyl)-2,2-dimethyl-3H-benzofuran-5-yl]pyrazolo[1,5-a]pyrimidine-3-carboxamide]
Second: CC1(C)CN(c2cc3c(cc2NC(=O)c2cnn4cccnc24)CC(C)(CO)O3)CCO1 (centres unmarked) [Example 17, N-(6-(2,2-Dimethylmorpholino)-2-(hydroxymethyl)-2-methyl-2,3-dihydrobenzofuran-5-yl)pyrazolo[1,5-a]pyrimidine-3-carboxamide]
The Ki of the first is 56-fold lower: 3.2 nM for the first, 180 nM for the second.

First: O=C(Nc1cc2c(cc1N1CCOCC1)C(=O)N(C[C@H]1C[C@H](O)C1)C2)c1cnn2cccnc12 [Example 262, N-[2-[(3-Hydroxycyclobutyl)methyl]-6-morpholino-1-oxo-isoindolin-5-yl]pyrazolo[1,5-a]pyrimidine-3-carboxamide]
Second: CC(C)(O)[C@H](F)CN1Cc2cc(NC(=O)c3cnn4cc(Cl)cnc34)c(N3CCOCC3)cc2C1=O [Example 271, 6-Chloro-N-[2-[(2R)-2-fluoro-3-hydroxy-3-methyl-butyl]-6-morpholino-1-oxo-isoindolin-5-yl]pyrazolo[1,5-a]pyrimidine-3-carboxamide]
The Ki of the first is 5.9-fold higher: 10 nM for the first, 1.7 nM for the second.

First: CC1(C)Cc2cc(NC(=O)c3cnn4cccnc34)c(N3C[C@H]4CCC(F)(F)[C@H]4C3)cc2O1 [Example 200, N-(6-((3aR,6aS)-4,4-difluorohexahydrocyclopenta[c]pyrrol-2(1H)-yl)-2,2-dimethyl-2,3-dihydrobenzofuran-5-yl)pyrazolo[1,5-a]pyrimidine-3-carboxamide]
Second: CC(C)(O)CN1Cc2cc(NC(=O)c3cnn4cccnc34)c(N3CCOCC3)cc2C1=O [Example 176, N-[2-(2-hydroxy-2-methyl-propyl)-6-morpholino-1-oxo-isoindolin-5-yl]pyrazolo[1,5-a]pyrimidine-3-carboxamide]
The Ki of the first is 2.3-fold lower: 22 nM for the first, 51 nM for the second. The first binds more tightly here.

Going from `CC(C)(O)CCN1Cc2cc(NC(=O)c3cnn4cccnc34)c(N3CCN(CC(N)=O)CC3)cc2C1=O` [Example 280, N-[6-[4-(2-Amino-2-oxo-ethyl)piperazin-1-yl]-2-(3-hydroxy-3-methyl-butyl)-1-oxo-isoindolin-5-yl]pyrazolo[1,5-a]pyrimidine-3-carboxamide] to `CC(C)C1(C)Cc2cc(NC(=O)c3cnn4cccnc34)c(N3CCOCC3)cc2O1` (centres unmarked) [Example 150, N-(2-Isopropyl-2-methyl-6-morpholino-2,3-dihydrobenzofuran-5-yl)pyrazolo[1,5-a]pyrimidine-3-carboxamide], the Ki rises from 2 nM to 89 nM (44-fold).

Compared with `CNc1cnc2c(C(=O)Nc3cc4c(cc3N3CCOCC3)C(=O)N(C(C)C)C4)cnn2c1` [Example 398, N-(2-Isopropyl-6-morpholino-1-oxoisoindolin-5-yl)-6-(methylamino)pyrazolo[1,5-a]-pyrimidine-3-carboxamide], `C[C@]1(CO)Cc2cc(NC(=O)c3cnn4cc(Cl)cnc34)c(N3CCOCC3)cc2O1` (single isomer, unassigned) [Example 166] is 2.6-fold higher in Ki: 7 nM for the first, 18 nM for the second. The first binds more tightly here.

`C[C@]1(CO)Cc2cc(NC(=O)c3cnn4cccnc34)c(N3CCC(C#N)CC3)cc2O1` [Example 335, (R)-N-(6-(4-cyanopiperidin-1-yl)-2-(hydroxymethyl)-2-methyl-2,3-dihydrobenzofuran-5-yl)pyrazolo[1,5-a]pyrimidine-3-carboxamide] and `CN1CCC(N2Cc3cc(NC(=O)c4cnn5cccnc45)c(N4CCN(CC(N)=O)CC4)cc3C2=O)CC1` [Example 281, N-[6-[4-(2-Amino-2-oxo-ethyl)piperazin-1-yl]-2-(1-methyl-4-piperidyl)-1-oxo-isoindolin-5-yl]pyrazolo[1,5-a]pyrimidine-3-carboxamide] are within 1.5-fold of each other in Ki: 2 nM for the first, 2.4 nM for the second.

Compared with `C[C@@]1(C2CC2)Cc2cc(NC(=O)c3cnn4cccnc34)c(N3CCC(F)(CO)CC3)cc2O1` [Example 162, (S)—N-(2-Cyclopropyl-6-(4-fluoro-4-(hydroxymethyl)piperidin-1-yl)-2-methyl-2,3-dihydrobenzofuran-5-yl)pyrazolo[1,5-a]pyrimidine-3-carboxamide], `CC1(C)Cc2cc(NC(=O)c3cnn4cc(OC(F)F)cnc34)c(N3CCOCC3)cc2O1` [Example 493, 6-(difluoromethoxy)-N-(2,2-dimethyl-6-morpholino-2,3-dihydrobenzofuran-5-yl)pyrazolo[1,5-a]pyrimidine-3-carboxamide] is 9.6-fold higher in Ki: 4.5 nM for the first, 43 nM for the second.

Going from `CC1CNc2cc(NC(=O)c3cnn4cccnc34)c(N3CCOCC3)cc2O1` (centres unmarked) [Example 11, N-(2-Methyl-7-morpholino-3,4-dihydro-2H-benzo[b][1,4]oxazin-6-yl)pyrazolo[1,5-a]pyrimidine-3-carboxamide] to `CSCCN1CCN(c2cc3c(cc2NC(=O)c2cnn4cccnc24)CC(C)(C)O3)CC1` [Example 454, N-(2,2-dimethyl-6-(4-(2-(methylthio)ethyl)piperazin-1-yl)-2,3-dihydrobenzofuran-5-yl)pyrazolo[1,5-a]pyrimidine-3-carboxamide], the Ki falls from 72 nM to 8.8 nM (8.2-fold). The second binds more tightly here.

Compared with `CC(C)(O)[C@@]1(C)Cc2cc(NC(=O)c3cnn4cccnc34)c(N3CCN(CC(N)=O)CC3)cc2O1` [Example 525, N-[(2R)-6-[4-(2-amino-2-oxo-ethyl)piperazin-1-yl]-2-(1-hydroxy-1-methyl-ethyl)-2-methyl-3H-benzofuran-5-yl]pyrazolo[1,5-a]pyrimidine-3-carboxamide], `CC(C)(O)[C@H](F)CN1Cc2cc(NC(=O)c3cnn4cccnc34)c(C3CC3)cc2C1=O` [Example 487, N-[6-Cyclopropyl-2-[(2R)-2-fluoro-3-hydroxy-3-methyl-butyl]-1-oxo-isoindolin-5-yl]pyrazolo[1,5-a]pyrimidine-3-carboxamide] is 6.9-fold lower in Ki: 4.2 nM for the first, 0.61 nM for the second.

Compared with `C[C@]1(O)COc2cc(N3CCN(CC(N)=O)CC3)c(NC(=O)c3cnn4cccnc34)cc2C1` [Example 424, (R)-N-(7-(4-(2-amino-2-oxoethyl)piperazin-1-yl)-3-hydroxy-3-methylchroman-6-yl)pyrazolo[1,5-a]pyrimidine-3-carboxamide], `CN(C)c1cc2c(cc1NC(=O)c1cnn3cccnc13)CN(C[C@@H](F)C(C)(C)O)C2=O` [Example 570, N-[6-(dimethylamino)-2-[(2R)-2-fluoro-3-hydroxy-3-methyl-butyl]-1-oxo-isoindolin-5-yl]pyrazolo[1,5-a]pyrimidine-3-carboxamide] is 4.8-fold lower in Ki: 3 nM for the first, 0.63 nM for the second.

Going from `C[C@]1(CO)CCc2cc(NC(=O)c3cnn4cccnc34)c(N3CCOCC3)cc2O1` (single isomer, unassigned) [Example 437] to `O=C(Nc1cc2c(cc1N1CCOCC1)C(=O)N(CCC1COC1)C2)c1cnn2cccnc12` [Example 252, N-[6-Morpholino-2-[2-(oxetan-3-yl)ethyl]-1-oxo-isoindolin-5-yl]pyrazolo[1,5-a]pyrimidine-3-carboxamide], the Ki falls from 14 nM to 5 nM (2.8-fold). The second binds more tightly here.

Going from `CC1(C)Cc2cc(NC(=O)c3cnn4cccnc34)c(OCC3CCNCC3)cc2O1` [Example 309, N-(2,2-Dimethyl-6-(piperidin-4-ylmethoxy)-2,3-dihydrobenzofuran-5-yl)pyrazolo[1,5-α]pyrimidine-3-carboxamide] to `CN1CCC2(CC1)Cc1cc(NC(=O)c3cnn4cccnc34)c(N3CCN(CC(=O)NC4CC4)CC3)cc1O2` [Example 376, N-(6-(4-(2-(Cyclopropylamino)-2-oxoethyl)piperazin-1-yl)-1′-methyl-3H-spiro[benzofuran-2,4′-piperidin]-5-yl)pyrazolo[1,5-a]pyrimidine-3-carboxamide], the Ki rises from 15 nM to 46 nM (3.1-fold). The first binds more tightly here.

First: O=C(Nc1cc2c(cc1N1CCOCC1)C(=O)N([C@@H]1CCC[C@@H]1CO)C2)c1cnn2cccnc12 [Example 565, N-(2-((1R,2S)-2-(hydroxymethyl)cyclopentyl)-6-morpholino-1-oxoisoindolin-5-yl)pyrazolo[1,5-a]pyrimidine-3-carboxamide]
Second: CN(C)C(=O)[C@@]1(C)Cc2cc(NC(=O)c3cnn4cccnc34)c(N3CCOCC3)cc2O1 [Example 439, (R)—N-(2-(dimethylcarbamoyl)-2-methyl-6-morpholino-2,3-dihydrobenzofuran-5-yl)pyrazolo[1,5-a]pyrimidine-3-carboxamide]
The Ki of the first is 2.8-fold higher: 94 nM for the first, 34 nM for the second.

First: CC1(C)Cc2cc(NC(=O)c3cnn4cc(Cl)cnc34)c(N3CCC4(CCOC4)CC3)cc2O1 [Example 167, 6-Chloro-N-(2,2-dimethyl-6-(2-oxa-8-azaspiro[4.5]decan-8-yl)-2,3-dihydrobenzofuran-5-yl)pyrazolo[1,5-a]pyrimidine-3-carboxamide]
Second: CC1(C)Cc2cc(NC(=O)c3cnn4cccnc34)c(OC[C@@H]3C[C@@H]4C[C@@H]4N3CC(F)F)cc2O1 [Example 293, N-(6-(((1S,3S,5S)-2-(2,2-difluoroethyl)-2-azabicyclo[3.1.0]hexan-3-yl)methoxy)-2,2-dimethyl-2,3-dihydrobenzofuran-5-yl)pyrazolo[1,5-a]pyrimidine-3-carboxamide]
The Ki of the first is 250-fold lower: 2.8 nM for the first, 690 nM for the second. The first binds more tightly here.
